Here are results for 2 molecules from patent US20050215555A1, “Inhibitors of 5-HT2A receptor” (priority 2003, published 2005).

Assay [1] deals with T1, 5-HT2C (Homo sapiens, UniProt P28335).
T1 sequence (P28335 33-458): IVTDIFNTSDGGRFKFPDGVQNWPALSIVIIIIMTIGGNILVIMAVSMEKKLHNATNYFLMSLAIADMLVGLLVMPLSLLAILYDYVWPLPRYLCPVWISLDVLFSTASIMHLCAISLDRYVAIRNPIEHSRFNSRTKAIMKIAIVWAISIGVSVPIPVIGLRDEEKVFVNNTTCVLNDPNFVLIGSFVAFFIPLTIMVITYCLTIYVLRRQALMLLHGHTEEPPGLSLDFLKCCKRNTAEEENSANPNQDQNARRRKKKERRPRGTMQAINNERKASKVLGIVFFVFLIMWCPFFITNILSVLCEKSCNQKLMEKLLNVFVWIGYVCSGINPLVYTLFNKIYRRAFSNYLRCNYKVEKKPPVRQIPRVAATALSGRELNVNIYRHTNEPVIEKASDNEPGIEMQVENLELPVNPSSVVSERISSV
Description: Radioligand displacement binding (3H-LSD), SPA or filter binding. More on the design: expressed in transfected cells; host or cells: CHO or HEK293. The conditions noted are these: recombinant human receptor. How it is done: (§1) The affinity constants of compounds were determined using recombinant human serotonin receptors stably expressed in fibroblast cell lines (CHO or HEK293), measuring the ability of the compounds to displace radio-labelled tracers using scintillation proximity assays or filter binding assays. For 5-HT1B , 5-HT2B and 5-HT2C receptor binding studies ^3H-LSD was used as radio ligand, for 5-HT2 A and 5-HT6 ^3H-5-HT was used as tracer, while the binding constant to 5-HT1A was determined using ^3H-8-OH-DPAT. The non-selective serotonin receptor antagonist mianserine was used as reference substance.
(§2) The calculation of the Ki values for the inhibitors was performed by use of Activity Base. The Ki value is calculated from IC50 using the Cheng Prushoff equation (with reversible inhibition that follows the Michaelis-Menten equation): […] [Cheng, Y. C.; Prushoff, W. H. Biochem. Pharmacol. 1973, 22, 3099-3108].

The target in a further assay is T2, 5-HT6 (Homo sapiens, UniProt P50406).
T2 construct: expressed in transfected cells; host or cells: CHO or HEK293
T2 sequence (P50406 whole entry): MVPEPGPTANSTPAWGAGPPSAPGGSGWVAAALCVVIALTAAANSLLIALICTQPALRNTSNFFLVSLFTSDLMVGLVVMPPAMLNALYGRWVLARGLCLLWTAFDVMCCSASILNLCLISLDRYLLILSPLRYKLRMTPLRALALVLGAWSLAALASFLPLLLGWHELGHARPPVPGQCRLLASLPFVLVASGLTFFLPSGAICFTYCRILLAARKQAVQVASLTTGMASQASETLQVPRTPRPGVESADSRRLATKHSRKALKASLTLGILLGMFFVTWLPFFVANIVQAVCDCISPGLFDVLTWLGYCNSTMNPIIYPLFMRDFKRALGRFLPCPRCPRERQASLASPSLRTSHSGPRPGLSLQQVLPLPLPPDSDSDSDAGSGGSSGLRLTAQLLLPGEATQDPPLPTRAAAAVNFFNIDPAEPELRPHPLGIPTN
Description: Radioligand displacement binding (3H-5-HT), SPA or filter binding. The following applies: recombinant human receptor. Here is the method: as §1, §2

For assay [2], the target named is T1, 5-HT2C. Description: FLIPR based assay, effect on 10 nM 5-HT induced Ca2+-currents. The format is cell-based. The following applies: functional FLIPR assays. Here is the method:
The activity at 5-HT2C receptors was studied in a FLIPR based assay, measuring the effect of compounds on 10 nM 5-HT induced Ca^2+-currents.

For assay [3], the target named is T3, 5-HT2A (Homo sapiens, UniProt P28223). Description: FLIPR functional assay (primary screening and IC50 determination), inhibition of 5-HT evoked peak response. More on the design: expressed in transfected cells; host or cells: CHO. The format is cell-based. The conditions noted are these: CHO cells expressing 5-HT2A, 15 min pre-incubation, Ki calculated from IC50 (Cheng Prushoff). Here is the method:
Primary screening and IC50 determination
CHO cells expressing 5-HT2A receptors seeded in 384 well plates are pre-loaded with Fluo-4AM fluorescent dye and then incubated with compound (10 μM for primary screen) for 15 min. Fluorescent intensity is recorded using a Fluorometric imaging plate reader (FLIPR384, Molecular Devices) and inhibition of the peak response evoked by 5-HT (EC70 concentration) is calculated.
IC50 determinations are performed utilizing the same finctional assay as described for primary screening (15 min antagonist compound pre-incubation), applying the compounds in the dose range of 3 nM to 10 μM.
as §2

A further assay has as its target T4, 5-HT1A (Homo sapiens, UniProt P08908).
T4 construct: expressed in transfected cells; host or cells: CHO or HEK293
T4 sequence (P08908 1-422): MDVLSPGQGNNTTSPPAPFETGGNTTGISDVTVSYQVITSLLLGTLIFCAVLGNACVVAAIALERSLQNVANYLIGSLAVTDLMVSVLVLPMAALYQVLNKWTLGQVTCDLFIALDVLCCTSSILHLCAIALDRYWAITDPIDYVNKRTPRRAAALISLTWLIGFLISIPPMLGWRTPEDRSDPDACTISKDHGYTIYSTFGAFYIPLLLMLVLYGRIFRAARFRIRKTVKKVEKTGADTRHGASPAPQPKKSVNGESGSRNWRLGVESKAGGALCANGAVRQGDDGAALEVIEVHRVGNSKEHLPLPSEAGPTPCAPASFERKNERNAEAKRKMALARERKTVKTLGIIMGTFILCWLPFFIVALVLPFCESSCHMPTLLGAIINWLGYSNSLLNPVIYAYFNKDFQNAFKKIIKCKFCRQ
Description: Radioligand displacement binding (3H-8-OH-DPAT), SPA or filter binding. The following applies: recombinant human receptor. How it is done:
as §1, §2

A further assay addresses T5, 5-HT2B (Homo sapiens, UniProt P41595).
T5 construct: expressed in transfected cells; host or cells: CHO or HEK293
Description: Radioligand displacement binding (3H-LSD), SPA or filter binding. The following applies: recombinant human receptor. Here is the method:
as §1, §2

For another assay, the target named is T6, 5-HT1B (Homo sapiens, UniProt P28222).
T6 construct: expressed in transfected cells; host or cells: CHO or HEK293
T6 sequence (P28222 whole entry): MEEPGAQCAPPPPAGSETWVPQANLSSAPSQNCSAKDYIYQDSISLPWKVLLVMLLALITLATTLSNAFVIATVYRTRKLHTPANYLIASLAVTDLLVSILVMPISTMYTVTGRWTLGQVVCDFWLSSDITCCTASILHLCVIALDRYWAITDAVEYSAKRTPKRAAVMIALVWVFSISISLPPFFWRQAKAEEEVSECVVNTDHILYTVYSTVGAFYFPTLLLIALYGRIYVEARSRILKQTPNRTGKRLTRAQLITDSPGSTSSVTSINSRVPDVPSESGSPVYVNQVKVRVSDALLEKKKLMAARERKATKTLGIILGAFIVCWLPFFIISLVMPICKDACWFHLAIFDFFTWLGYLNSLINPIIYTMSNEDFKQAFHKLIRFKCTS
The assay is described as above. The conditions noted are these: recombinant human receptor. How it is done:
as §1, §2

The target of assay [4] is T3, 5-HT2A. Description: Radioligand displacement binding (3H-5-HT), SPA or filter binding. More on the design: expressed in transfected cells; host or cells: CHO or HEK293. How it is done: as §1, §2
The mark [5] stands for this setting: equilibrium displacement binding, n=3, unit inferred, read-out: Ki values for the 5-HT2A receptor subtype.
The mark [6] stands for this setting: recombinant human receptor, 3H-5-HT, read-out: Binding Ki (nM) 5-HT2A.

T3 sequence (P28223 whole entry): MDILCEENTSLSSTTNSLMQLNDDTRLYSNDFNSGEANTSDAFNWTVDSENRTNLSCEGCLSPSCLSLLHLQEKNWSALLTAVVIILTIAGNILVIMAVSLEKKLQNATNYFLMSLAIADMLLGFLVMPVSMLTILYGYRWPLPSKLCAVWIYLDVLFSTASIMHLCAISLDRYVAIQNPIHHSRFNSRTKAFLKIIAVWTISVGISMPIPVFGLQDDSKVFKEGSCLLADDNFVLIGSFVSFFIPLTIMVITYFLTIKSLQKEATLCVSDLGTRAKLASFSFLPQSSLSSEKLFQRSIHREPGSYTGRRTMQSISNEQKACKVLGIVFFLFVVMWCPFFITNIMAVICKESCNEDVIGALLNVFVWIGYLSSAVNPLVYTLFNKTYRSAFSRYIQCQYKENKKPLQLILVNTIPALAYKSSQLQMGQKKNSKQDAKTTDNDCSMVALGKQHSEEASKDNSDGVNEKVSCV
T5 sequence (P41595 whole entry): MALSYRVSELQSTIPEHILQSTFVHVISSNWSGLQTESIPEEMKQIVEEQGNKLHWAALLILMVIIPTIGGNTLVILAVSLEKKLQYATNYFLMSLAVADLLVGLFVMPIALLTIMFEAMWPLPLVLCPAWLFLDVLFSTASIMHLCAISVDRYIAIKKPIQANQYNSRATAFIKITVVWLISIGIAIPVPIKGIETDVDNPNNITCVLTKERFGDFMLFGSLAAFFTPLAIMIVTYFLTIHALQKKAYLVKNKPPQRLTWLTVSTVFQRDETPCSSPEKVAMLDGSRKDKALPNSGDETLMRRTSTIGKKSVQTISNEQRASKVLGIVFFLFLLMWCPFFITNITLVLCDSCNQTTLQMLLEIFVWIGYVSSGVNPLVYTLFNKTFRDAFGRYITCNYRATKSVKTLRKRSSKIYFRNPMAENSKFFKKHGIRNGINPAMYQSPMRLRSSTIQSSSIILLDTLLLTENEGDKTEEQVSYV

As to `Cc1ccn2c(C3CCN(CCc4ccccc4)CC3)nc(-c3ccccc3)c2c1` [Example 4, 7-methyl-1-phenyl-3-[1-(2-phenylethyl)piperidin-4-yl]imidazo[1,5-a]pyridine], the Ki at 5-HT2C [1] is over 1000 nM; at 5-HT6, over 1000 nM; on 5-HT2A [3] it was 8.2 nM; on 5-HT1A, over 1000 nM; at 5-HT2B it was 267 nM; at 5-HT1B, over 1000 nM. Moreover, the results for the Ki on 5-HT2A [4] (setting [5]) and on 5-HT2A [4] (setting [6]) were 14 nM and 13.6 nM, respectively. In addition, the “selectivity at 5-HT2A versus the 5-HT2C receptor in terms of efficacy” value at 5-HT2C [2] is reported as “highly selective”.

As for `c1ccc(CCN2CCC(c3nc(-c4ccccc4)c4ccccn34)CC2)cc1` [Example 2], the Ki was over 1000 nM on 5-HT2C [1]; over 1000 nM at 5-HT6; 20.6 nM at 5-HT2A [3]; over 1000 nM at 5-HT1A; 444 nM on 5-HT2B; over 1000 nM at 5-HT1B. Moreover, the Ki is 6 nM at 5-HT2A [4] (setting [5]) and 5.9 nM on 5-HT2A [4] (setting [6]). For the same molecule, the “selectivity at 5-HT2A versus the 5-HT2C receptor in terms of efficacy” value at 5-HT2C [2] is on record as “highly selective”.
